The test system of assay [1] is potassium depolarised rat uterus. The experiment in a line: Relaxation of potassium depolarised rat uterus. Also noted: species or system rat (female Sprague Dawley). The conditions noted are these: 7 preparations, relative to full relaxation with isoprenaline, read-out: % maximum relaxation. The protocol: Relaxation of Potassium Depolarised Rat Uterus
Female Sprague Dawley rats (120-160 g) were sacrificed and the uterine horns removed. Each horn was cut longitudinally to give a sheet of muscle which was further subdivided to give two preparations (i.e. 4 from each animal). Each tissue was mounted in a 10 ml organ bath containing normal Krebs buffer at 32° C. and gassed with 95% O2 -5% CO2. During an equilibration period of approximately 45 min the tissues were repeatedly stretched and washed to maintain a resting tension of 0.2 g. An increase in tension was induced by exchanging the Krebs buffer for one in which the sodium ions were replaced by the equivalent amount of potassium ions.
This caused the tissues to contract followed by a slow relaxation which equilibrated at a level above the initial resting level. A cumulative concentration effect curve to compound 1 was then carried out until the response to the final bath concentration (10^-4 M) had stabilised. Incremental concentrations of isoprenaline were then added until the tissues had fully relaxed. Results are expressed as a percentage of this maximum relaxation.
7 preparations were used.

A further assay relates to Rat isolated colon. The experiment in a line: Rat isolated colon: inhibition of spontaneous contractions. Also noted: species or system rat (male Wister). The conditions noted are these: 10 min, cumulative dosing at 10 min intervals, graphically determined, read-out: ID50 (concentration reducing amplitude of spontaneous contractions by 50%). The protocol:
Rat isolated colon. Male Wister rats (Charles River U.K.) were killed by a blow on the head and a 2 cm segment of proximal colon excised. After gently washing free any luminal contents the tissue was suspended longitudinally in a 10 ml organ bath containing Krebs solution of the following composition: NaCl 118.1 mM, KH2 PO4 1.18 mM, NaHCO3 25 mM, KCl 4.69 mM, MgSO4 1.64 mM, CaCl2 2.52 mM, Glucose 11.1 mM. This solution was maintained at 37° C. and constantly bubbled with 95% O2 : 5% CO2. Isometric contractions were recorded from the tissue with an initial tension of 1 g being applied.
The inhibitory effects of compounds 1+2 were assessed from the reduction in amplitude of the spontaneous contractions of the colon. Cumulative dose-response curves were constructed with the compounds being applied to the bath at intervals of 10 mins. ID50 (concentration of drug reducing amplitude of contractions by 50%) was graphically determined from the dose-response curve.
Rat isolated colon : effect of compounds 1 and 2 on spontaneous contractions

The test system of the next assay is Rat isolated portal vein. The experiment in a line: Rat isolated portal vein: inhibition of spontaneous contractions and of contractions due to added calcium. Also noted: species or system rat (male Sprague Dawley). The following applies: for IC50: Rattus norvegicus, 0.25 h, 15 min contact time, 6-9 tissues, 95% fiducial limits in next line. The protocol: (1) Rat isolated portal vein. Male Sprague Dawley rats (250-350 g) were killed by cervical dislocation. Portal veins (2-3cm in length) were set up under 0.8-1 g tension in a 10 ml organ bath containing Krebs-Henseleit solution, at 37° C., of the following composition (mM): NaCl 118, NaHCO3 25, glucose 5, KH2 PO4 1.18, KCl 4.69, MgSO4 0.59, CaCl2.H2 O 1.87. The tissue was aerated with a 95% oxygen and 5% carbon dioxide mixture. Isometric tension was recorded using a Devices strain gauge and recorder. Each preparation was allowed 1h to equilibrate before the addition of test compound. The ability of a compound to inhibit the contractions due to added calcium (3 mM CaCl2) was determined in tissues bathed in Krebs-Henseleit solution containing 0.05 mM CaCl2 (in order to reduce spontaneous contractions). Then percentage inhibition (mean ±s.e.m.; 6-9 tissues) of the amplitude of the spontaneous contractions, and contractions due to added calcium, was determined after 15 min contact time with test compound.
(1) Rat Isolated Portal Vein: effect of compound 1 on spontaneous contractions and those due to added calcium.
IC50 is concentration of compound reducing contractions by 50%; parenthesis indicate 95% fiducial limits.

For assay [2], the system named is Rabbit isolated mesenteric artery. The experiment in a line: Rabbit isolated mesenteric artery: relaxation of contractions due to KCl. Also noted: species or system rabbit (male New Zealand White). The following applies: for IC50: Oryctolagus cuniculus, 4-9 tissues. As to the method:
(2) Rabbit isolated mesenteric artery. Mesenteric arteries (3 mm rings) were removed from male New Zealand White rabbits and mounted, at a resting tension of 1.5-2.0 g, in a 10 ml organ bath containing a Ringer solution, at 37° C., of the following composition (mM): NaCl 120.8; KCl 5.9; CaCl2 2.5; MgCl2 1.2; HEPES 5.8; glucose 11.5. The bathing solution was bubbled with a 95% oxygen and 5% carbon dioxide mixture. Each preparation was allowed 1-11/2 h to equilibrate before the addition of either 30 or 90 mM KCl to contract the tissue. The ability of test compound to relax the sustained contraction due to KCl was determined by assessing the % reduction (mean ±s.e.m.; 4-9 tissues) produced by varying concentrations of test compound.
(2) Rabbit Isolated Mesenteric Artery: effect of compound 1 on contractions due to 30 and 90 mM KCl.
IC50 is the concentration of compound 1 halving the contraction due to KCl; parenthesis indicate 95% fiducial limits.

In the next assay the test system is conscious guinea-pig. In words: Guinea pig asphyxic collapse model in vivo (histamine aerosol). Also noted: species or system guinea pig (female Dunkin-Hartley). The conditions noted are these: 5 mg/kg p.o., 30 min pretreatment, control 90 ± 10. An excerpt:
This model is based on the method described by Herxheimer (Br.J.Pharm.50, 314 (1974)]. Conscious female guinea pigs (Dunkin-Hartley strain, 500-700 g body weight) were placed individually into a Perspex chamber of approximately 8 litres capacity, and the animals were challenged with an histamine aerosol. The standard histamine aerosol was generated using a Monaghan 675 ultrasonic nebulizer (power setting 7) from a 5×10^-5 m solution of histamine acid phosphate in distilled water. After obtaining satisfactory aerosol generation, the aerosol was passed into the chamber for 10 seconds and the time was recorded from introduction of the aerosol until the guinea pig collapsed (termed asphyxic collapse). The animal was rapidly removed and allowed to recover. In this way, the mean time to asphyxic collapse for a group of guinea pigs was determined.
Compounds were administered orally to groups of animals and the degree of protection against histamine-induced asphyxic collapse was determined by the percentage increase in mean time to asphyxic collapse of a compound-treated group to asphyxic collapse for control groups was around 80-100 seconds. […]
The significance of any increase in the mean asphyxic collapse time of a compound-treated group of animals over that of a vehicle-treated control group was determined using students "t" test. […]

Each structure is given as a SMILES string. In brackets after ≈: the same amount, converted by molar mass. Like-named read-outs stand apart in the source and are kept apart here.

On to `CC1(C)Oc2ccc(C#N)cc2[C@@H](N2CCCC2=O)[C@@H]1O` (relative stereo) [Compound 1, 6-cyano-3,4-dihydro-2,2-dimethyl-trans-4-(2-oxo-1-pyrrolidinyl)-2H-benzo[b]pyran-3-ol], for which the activation at 100 µM in assay [1] (1 × 10^-4 M) is 61 ± 6%. In assay [1] (1 × 10^-5 M), the activation at 10 µM is 18 ± 3%. Moreover, the activation at 30 µM in assay [1] (3 × 10^-5 M) was found to be 31 ± 3%. The activation at 3 µM in assay [1] (3 × 10^-6 M) was 6 ± 2%. In addition, the IC50 is 0.12 µg/mL (≈ 0.419 µM) in the assay on Rat isolated colon; 0.15 µM in the assay on Rat isolated portal vein (contractions due to added calcium (3 mM CaCl2), read-out: IC50 Ca^2+ (3 mM) contractions); 0.12 µM with Rat isolated portal vein (spontaneous contractions, read-out: IC50 Spontaneous contractions); 0.51 µM in assay [2] (30 mM KCl, 95% fiducial limits in next line, read-out: IC50 30 mM KCl contraction); over 10 µM in assay [2] (90 mM KCl, read-out: IC50 90 mM KCl contraction). Moreover, the “relative potency, spontaneous contractions vs those due to added calcium” value in the assay with Rat isolated portal vein (spontaneous contractions and those due to added calcium) was “equipotent”. Also, in assay [2] (high concentration of KCl), the “effect against a high concentration of KCl” value is “effectiveness of compound 1 against a high concentration of KCl”. In addition, the “antagonism of contractions due to potassium” value in assay [2] (partially (low KCl) vs fully (high KCl) depolarising concentration) is reported as “antagonises the contractions due to a partially, but not a fully, depolarising concentration of potassium”. Also, the Mean collapse time with conscious guinea-pig (N=5, *p < 0.05) was 154 ± 26 s.
Turning to `CC1(C)Oc2ccc(Cl)cc2[C@@H](N2CCCC2=O)[C@@H]1O` (relative stereo) [Compound 2, 6-chloro-3,4-dihydro-2,2-dimethyl-trans-4-(2-oxo-1-pyrrolidinyl)-2H-benzo[b]pyran-3-ol], the IC50 in the assay with Rat isolated colon is 1.7 µg/mL (≈ 5.75 µM).
Turning to `CCN(C(C)=O)[C@@H]1c2cc(C#N)ccc2OC(C)(C)[C@H]1O` (relative stereo) [Compound 4, trans-4-(N-acetyl)-ethylamino-6-cyano-3,4-dihydro-2,2-dimethyl-2H-benzo[b]pyran-3-ol], the Mean collapse time in the assay with conscious guinea-pig (N=4, **p < 0.01) came to 176 ± 25 s.

The values are drawn from patent US4786639A, “Method for the treatment of reversible airways obstruction and asthma” (Beecham Group p.l.c., priority 1984, dated 1988).
